Source: PubChem BioAssay (NCI)
“And” between values parts separate entries of the source, which are not always exact repeats. Equal values may be shown once.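 Briefly, cells in 96-well plates were exposed to five compound concentrations for 48 h, and endpoints were estimated by linear interpolation. The concentration for 50% growth inhibition is given as GI50. The concentration for full growth arrest is given as TGI.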

Assays:
Experiment in all cases: DTP human tumour cell line panel, 48 h
[1] = system: SF-539 CNS
[2] = system: UACC-257 melanoma
[3] = system: SF-268 CNS
[4] = system: SNB-19 CNS
[5] = system: HL-60(TB) leukemia
[6] = system: MDA-MB-435
[7] = system: MDA-MB-231 breast
[8] = system: SK-OV-3 ovarian
[9] = system: SF-295 CNS
[10] = system: OVCAR-8 ovarian
[11] = system: HCC-2998 colon
[12] = system: SR leukemia
[13] = system: NCI-H23 lung
[14] = system: M14 melanoma
[15] = system: HOP-62 NSCLC
[16] = system: UACC-62 melanoma
[17] = system: LOX IMVI melanoma
[18] = system: NCI-H460 lung
[19] = system: ACHN renal
[20] = system: NCI-H226 lung
[21] = system: MDA-MB-468 breast
[22] = system: CCRF-CEM leukemia
[23] = system: HCT-15 colon
[24] = system: OVCAR-4 ovarian
[25] = system: SNB-75 CNS
[26] = system: HT29 colon
[27] = system: TK-10 renal
[28] = system: HCT-116 colon
[29] = system: CAKI-1 renal
[30] = system: 786-0 renal
[31] = system: BT-549 breast
[32] = system: U251 CNS
[33] = system: HS 578T breast
[34] = system: HOP-92 NSCLC
[35] = system: NCI-H522 lung
[36] = system: KM12 colon
[37] = system: MALME-3M melanoma
[38] = system: SK-MEL-5 melanoma
[39] = system: RXF 393 renal
[40] = system: IGROV1 ovarian
[41] = system: T-47D breast
[42] = system: SN12C renal
[43] = system: A549 NSCLC
[44] = system: EKVX NSCLC
[45] = system: A498 renal
[46] = system: OVCAR-3 ovarian
[47] = system: NCI/ADR-RES ovarian
[48] = system: MOLT-4 leukemia
[49] = system: MCF7 breast
[50] = system: PC-3 prostate
[51] = system: RPMI-8226 leukemia
[52] = system: DU-145 prostate
[53] = system: SK-MEL-28 melanoma
[54] = system: OVCAR-5 ovarian
[55] = system: SK-MEL-2 melanoma
[56] = system: UO-31 renal

COc1ccc(NC(=O)Cn2c(/C=C/c3ccc(N(C)C)cc3)nc3ccccc3c2=O)cc1
GI50 [1]: 1.79 µM | TGI [1]: 3.67 µM | GI50 [2]: 84.5 µM | TGI [2]: > 100 µM | GI50 [3]: 12.4 µM | TGI [3]: > 100 µM | GI50 [4]: 13.1 µM | TGI [4]: 40.3 µM | GI50 [5]: > 100 µM | TGI [5]: > 100 µM | GI50 [6]: 7.19 µM | TGI [6]: > 100 µM | GI50 [7]: 2.61 µM | TGI [7]: 6.84 µM | GI50 [8]: 3.22 µM | TGI [8]: 8.35 µM | GI50 [9]: 3 µM | TGI [9]: 11.9 µM | GI50 [10]: 13.5 µM | TGI [10]: > 100 µM | GI50 [11]: 6.21 µM | TGI [11]: > 100 µM | GI50 [12]: > 100 µM | TGI [12]: > 100 µM | GI50 [13]: 3.79 µM | TGI [13]: 22.5 µM | GI50 [14]: 12.9 µM | TGI [14]: > 100 µM | GI50 [15]: 5 µM | TGI [15]: 20.6 µM | GI50 [16]: 2.96 µM | TGI [16]: 13.1 µM | GI50 [17]: 4.48 µM | TGI [17]: > 100 µM | GI50 [18]: 3.63 µM | TGI [18]: > 100 µM | GI50 [19]: 3.25 µM | TGI [19]: 11.4 µM | GI50 [20]: 2.31 µM | TGI [20]: 6.24 µM | GI50 [21]: 3.11 µM | TGI [21]: 21.2 µM | GI50 [22]: > 100 µM | TGI [22]: > 100 µM | GI50 [23]: 13.6 µM | TGI [23]: > 100 µM | GI50 [24]: 28.9 µM | TGI [24]: > 100 µM | GI50 [25]: 3.86 µM | TGI [25]: 39.9 µM | GI50 [26]: 6.32 µM | TGI [26]: > 100 µM | GI50 [27]: 6.22 µM | TGI [27]: 24.2 µM | GI50 [28]: 3.05 µM | TGI [28]: 11.2 µM | GI50 [29]: 4.12 µM | TGI [29]: 20.7 µM | GI50 [30]: 2.03 µM | TGI [30]: 4.62 µM | GI50 [31]: 2.01 µM | TGI [31]: 5.43 µM | GI50 [32]: 3.72 µM | TGI [32]: 18.5 µM | GI50 [33]: 4.88 µM | TGI [33]: 74.9 µM | GI50 [34]: 3.65 µM | TGI [34]: 18.9 µM | GI50 [35]: 5.69 µM | TGI [35]: 29.4 µM | GI50 [36]: > 100 µM | TGI [36]: > 100 µM | GI50 [37]: 3.95 µM | TGI [37]: 24 µM | GI50 [38]: 2.96 µM | TGI [38]: 10.4 µM | GI50 [39]: 2.09 µM | TGI [39]: 5.27 µM | GI50 [40]: 36.7 µM | TGI [40]: > 100 µM | GI50 [41]: 4.27 µM | TGI [41]: > 100 µM | GI50 [42]: > 100 µM | TGI [42]: > 100 µM | GI50 [43]: 13.9 µM | TGI [43]: > 100 µM | GI50 [44]: 40.3 µM | TGI [44]: > 100 µM | GI50 [45]: 4.19 µM | TGI [45]: 19.8 µM | GI50 [46]: > 100 µM | TGI [46]: > 100 µM | GI50 [47]: 3.51 µM | TGI [47]: 20.4 µM | GI50 [48]: > 100 µM | TGI [48]: > 100 µM | GI50 [49]: 4.35 µM | TGI [49]: > 100 µM | GI50 [50]: 5.6 µM | TGI [50]: > 100 µM | GI50 [51]: 7.14 µM | TGI [51]: > 100 µM | GI50 [52]: 7.64 µM | TGI [52]: > 100 µM | GI50 [53]: 6.07 µM | TGI [53]: > 100 µM | GI50 [54]: > 100 µM | TGI [54]: > 100 µM | GI50 [55]: 16.1 µM | TGI [55]: 47.9 µM | GI50 [56]: 2.92 µM | TGI [56]: 31.3 µM

CCCCn1c(=O)c(/C=C/C(=O)/C=C/c2cc3ccccc3n(CCCC)c2=O)cc2ccccc21
GI50 [21]: 1.64 µM | TGI [21]: 3.76 µM

Cc1ccc(C(=O)NC2CC2)cc1-c1ccc2[nH]ncc2c1
GI50 [21]: > 23 µM | TGI [21]: > 25 µM

COC(=O)[C@H](Cc1cn(C)cn1)NC(=O)[C@H](Cc1ccccc1)NC(=O)Nc1cc(C(F)(F)F)cc(C(F)(F)F)c1
GI50 [21]: 4.4 µM and 4.23 µM | TGI [21]: 17.7 µM

C=C1CCC2C3(C)COC(c4ccccc4Cl)OC3CCC2(C)C1/C=C/C1=CCOC1=O (stereo unspecified)
GI50 [21]: 4.96 µM | TGI [21]: > 100 µM

Cc1cc(O)c(-c2ccc([C@@H](C)CN(C)C)cc2)c2c1[nH]c(=O)c1sccc12
GI50 [21]: 0.514 µM | TGI [21]: 3.94 µM

COC(=O)N[C@H]1CCc2c(Cl)c(OC)c(OC)c(OC)c2-c2ccc(SC)c(=O)cc21
GI50 [21]: < 0.01 µM | TGI [21]: 23.1 µM

CC(C)(C)OC(=O)N[C@@H](Cc1ccccc1)C(=O)N(Cc1ccccc1)C1(C(=O)NCc2ccccc2)CCN(Cc2ccccc2)CC1
GI50 [21]: 1.62 µM | TGI [21]: 5.91 µM

CC(C)(C)OC(=O)Nc1ccc2c(c1)C(NC(=O)Nc1cccc(C#N)c1)CC(C)(C)O2 (stereo unspecified)
GI50 [21]: 0.381 µM | TGI [21]: 9.9 µM

COc1ccc2nc3cc(Cl)ccc3c(Nc3cc(CN4CCCC4)c(O)c(CN4CCCC4)c3)c2n1
GI50 [21]: 1.33 µM | TGI [21]: 2.76 µM

ClC(Cl)c1nc(-c2cccs2)n2nc(-c3ccccc3)cc2n1
GI50 [21]: 0.224 µM | TGI [21]: 0.688 µM

C=C(C)[C@@H]1CC[C@]2(C(=O)NS(=O)(=O)c3ccccc3)CC[C@]3(C)[C@H](CC[C@@H]4[C@@]5(C)CC[C@H](OC(=O)NS(=O)(=O)c6ccccc6)C(C)(C)[C@@H]5CC[C@]43C)[C@@H]12
GI50 [21]: 2.22 µM | TGI [21]: 10.2 µM

CCN(CC)CCCCNc1c2ccc(Cl)cc2nc2ccc(OC)cc12
GI50 [21]: 0.317 µM | TGI [21]: 1.83 µM
